Laboratory results as given in patent US20220378042A1, “Herbicide combinations comprising glufosinate and oxyfluorfen” (BASF SE, priority 2020, published 2022).
Read-outs that look alike come from different tables or passages of the source.

Columns and labels:
Chenopodium album = assay: greenhouse post-emergence herbicidal activity on Chenopodium album; type: in vivo; settings: for inhibition at 327 g/ha: read-out: Solo Glufosinate % activity; for inhibition at 10.2 g/ha: 10.2 g ai/ha, scale 0-100% damage vs untreated, read-out: Solo Oxyfluorfen % activity
Source text: (§1) For the post-emergence treatment, the test plants were first grown to 3 to 4 inch (7.6 to 10.2 cm) tall, and only then treated. Here, the herbicidal compositions were suspended or emulsified in water as distribution medium and sprayed using finely distributing nozzles.
(§2) The herbicide compounds applied in the examples were used as commercially available formulations which have been diluted with deionized water to a suitable concentration.
(§3) Oxyfluorfen (commercial product name: Goal 2XL) was used as an emulsifiable concentrate having an active ingredient concentration of 240 g/l. Glufosinate (commercial product name: Liberty) was used as an aqueous soluble liquid of glufosinate ammonium having an active ingredient concentration of 280 g/l. Adjuvants of ammonium sulfate (AMS) and non-ionic surfactant (NIS) were added in all treatments. AMS and NIS were AMS Liquid and Induce at rates of 1680 g/ha and 0.25% (v/v), respectively.
(§4) The test period extended over 28 days after treatment (DAT). During this time, the plants were tended and their response to the individual treatments was evaluated.
(§5) The evaluation for the damage caused by the chemical compositions was carried out using a scale from 0 to 100%, compared to the untreated control plants. Here, 0 means no damage and 100 means complete destruction of the plants.
(§6) The plants used in the greenhouse experiments belonged to the following species:
(§7) E=X+Y−(X·Y/100) • where X=effect in percent using Oxyfluorfen at an application rate a; • Y=effect in percent using glufosinate at application rate b; • E=expected effect (in %) of Oxyfluorfen plus glufosinate at application rates a+b.
(§8) The value E corresponds to the effect (plant damage or injury) which is to be expected if the activity of the individual compounds is just additive. If the observed effect is higher than the value E calculated according to Colby, a synergistic effect is present.

Echinochloa crus-galli = assay: greenhouse post-emergence herbicidal activity on Echinochloa crus-galli; type: in vivo; settings: for inhibition at 327 g/ha: read-out: Solo Glufosinate % activity; for inhibition at 10.2 g/ha: 10.2 g ai/ha, scale 0-100% damage vs untreated, read-out: Solo Oxyfluorfen % activity
Source text: as §1, §2, §3, §4, §5, §6, §7, §8

SMILES | inhibition at 327 g/ha (Chenopodium album; 168 h) [%] | inhibition at 327 g/ha (Chenopodium album; 336 h) [%] | inhibition at 327 g/ha (Chenopodium album; 504 h) [%] | inhibition at 327 g/ha (Echinochloa crus-galli; 168 h) [%] | inhibition at 327 g/ha (Echinochloa crus-galli; 336 h) [%] | inhibition at 327 g/ha (Echinochloa crus-galli; 504 h) [%] | inhibition at 10.2 g/ha (Chenopodium album; 168 h, 7 DAT) [%] | inhibition at 10.2 g/ha (Chenopodium album; 336 h, 14 DAT) [%] | inhibition at 10.2 g/ha (Chenopodium album; 504 h, 21 DAT) [%] | inhibition at 10.2 g/ha (Echinochloa crus-galli; 168 h, 7 DAT) [%] | inhibition at 10.2 g/ha (Echinochloa crus-galli; 336 h, 14 DAT) [%] | inhibition at 10.2 g/ha (Echinochloa crus-galli; 504 h, 21 DAT) [%]
CP(=O)(O)CCC(N)C(=O)O (racemic) [Glufosinate, (2RS)-2-amino-4-[hydroxy(methyl)phosphinoyl]butyric acid] | 81 | 75 | 78 | 84 | 25 | 20 | – | – | – | – | – | –
CCOc1cc(Oc2ccc(C(F)(F)F)cc2Cl)ccc1[N+](=O)[O-] [Oxyfluorfen] | – | – | – | – | – | – | 33 | 25 | 30 | 28 | 15 | 20
